Measured values published in US20130203846A1, “PHENYL CARBAMATE COMPOUNDS FOR USE IN PREVENTING OR TREATING ALS” (Bio-Pharm Solutions Co., Ltd., priority 2011, published 2013).
Marks after values point to notes of the source that are not given here.

What was measured:
Format in all cases: in vivo, mouse
male ICR mice = assay: MES (maximal electroshock seizure) test, mice; conditions: for ED50: Mus musculus, oral, at peak time
Description: The obtained results are shown as mean±sem. The difference between the groups was statistically analyzed by ANOVA, and then, further examined by Dunnett's test or Bonferroni test. If p is less than 0.05, it was determined that the difference between the groups had statistical significance.

[1] = system: mice expressing mutated human SOD1-G93A transgene; assay: Survival of ALS transgenic mice; conditions: TG G93A SOD1 mice
[2] = system: mice expressing mutated human SOD1-G93A transgene; assay: Clinical scoring and disease onset of ALS transgenic mice; conditions: TG G93A SOD1 mice
Description: Altogether 80 male and female mice expressing mutated human SOD1-G93A transgene (heterozygous TgN-SOD1-G93A-1Gur; Gurney et al. (1994), Science 264, 1772. 1775) and 15 of their wild type littermates were used for the experiments. […] PCR was used to genotype the mice before the start of the experiments.
The animals were grouped as follows: • <Non-transgenic male mice> • Group 1: 15 WT mice treated with vehicle (30% (w/v) polyethyleneclycol 400 (PEG400), once a day, p.o.) starting at 60 days of age and continuing until end-point • <Transgenic G93A SOD1 male mice: ALS-transgenic mice> • Group 2: 20 transgenic mice treated with vehicle (30% (w/v) polyethyleneclycol 400 (PEG400), once a day, p.o.) staring at 60 days of age and continuing until end-point • Group 3: 20 transgenic mice treated with a drug (Compound 1) at dose of 3 mg/kg (once a day, p.o.) staring at 60 days of age and continuing until end-point • Group 4: 20 transgenic mice treated with Compound 1 at dose of 10 mg/kg (once a day, p.o.) staring at 60 days of age and continuing until end-point • Group 5: 20 transgenic mice treated with Compound 1 at dose of 50 mg/kg (once a day, p.o.) staring at 60 days of age and continuing until end-point
Treatment with drug (Compound 1) was started at the age of 60 days and continued until the mice reached 150 days of age. The drug was administered p.o. once a day between 8-12 am. The drug solubilized in 30% (w/v) polyethyleneclycol 400 (PEG400), and the obtained solution was briefly vortexed and sonicated at RT (room temperature) for 20 minutes. Treatment solution of the drug was prepared fresh every day. […]
The earliest clinical signs were tremor and shaking of their limbs when the mice are suspended briefly in the air by their tails. […] Animals were scored by lifting them gently by the base of their tails and observing them for tremors, stiffness and their ability to extend their limbs. […]
Onset of disease for each mouse was recorded when they reach a disease stage 4.

[3] = system: mice expressing mutated human SOD1-G93A transgene; assay: Body weight of ALS transgenic mice; conditions: TG G93A SOD1 mice; 3, 10, 50 mg/kg p.o. once a day; compared with WT group
Description: (§1) Altogether 80 male and female mice expressing mutated human SOD1-G93A transgene (heterozygous TgN-SOD1-G93A-1Gur; Gurney et al. (1994), Science 264, 1772. 1775) and 15 of their wild type littermates were used for the experiments. […] PCR was used to genotype the mice before the start of the experiments. […]
Since weight loss has proven to correlate well with disease development and is easily scored co-jointly with disease stage, the mice were weighted once-a-week at the age of 60 days to 90 days and three times a week after they reach the age of 91 days (13 weeks).

[4] = system: mice expressing mutated human SOD1-G93A transgene; assay: Open field test of ALS transgenic mice; conditions: TG G93A SOD1 mice; 3, 10, 50 mg/kg p.o. once a day; baseline, day 90, day 110
Description: as §1
Open field test measurements were performed before the dosing is stated (baseline) and around day 90 (13th age week) and day 110 (16th age week). […] Mice were placed in the center of the chamber and their behaviors were recorded for 10 minutes. The following parameters were recorded: distance moved.

male mice (ICR) [5] = assay: Muscle relaxation: grip strength test (forelimbs); conditions: i.p., 120 mg/kg administered
Description: (§2) For testing, male mice (ICR) were purchased from ORIENT BIO INC. (Korea), divided into several groups with 6 mice in each group, and were adapted for 4-5 days. The mice having the weight ranging from 19 g to 26 g were employed for the test. The pharmacological effect of the test compounds on muscle relaxation was evaluated by Rotarod test, grip strength test, and muscular force (wire hang) test. All mice were adapted to the test environment at one hour before starting the tests. The pharmacological effects of all the test compounds were evaluated by administration through peritoneal cavity of the mice (10 ul/g, bw).
A grip strength test using the test animals' forelimbs was performed using an instrument equipped with triangle ring and designed so as to easily grip with the forelimbs of experimental animals, manufactured from Ugo Basile Inc. (Ugo Basile, Mode147106, Italy). […] The mouse was made to grip the rod with its forelimbs, and its tail was pulled, where the force at which the mouse detached from the rod was recorded. […] This experimentation was conducted according to the method described in the reference, ‘Nevins et al. (1993) Quantitative grip strength assessment as a means of evaluating muscle relaxation in mice. […]
(§3) The results of muscle relaxation activity of the phenyl carbamate compounds measured in above Experimental Examples 1.2 to 1.4 are shown in following Table 3.

male mice (ICR) [6] = assay: Muscle relaxation: wire hang test; conditions: i.p., 100 mg/kg administered
Description: as §2
This experimentation was conducted using a metal wire of 30 cm in length, which was suspended between two pillars at a height of about 40 cm from the bottom covered with a soft pad. […] Each mouse was made to grip the wire using two forelimbs, and the elapse time before the mouse fell off from the wire to the pad on the bottom was recorded in seconds. Each mouse was given 5 opportunities for this test at an interval of 2 minutes period. The highest 3 records among the test opportunities were selected and the mean value was used as the test result. […]
as §3

[7] = group treated with 10 mg/kg p.o. once a day

In the case of `CC(OC(N)=O)C(O)c1ccccc1Cl` (racemic) [Compound 3, 1-(2-chlorophenyl)-1-hydroxypropyl-2-carbamate], the “MES test (po) Peak Time” value (male ICR mice) is reported as 2 h.

`C[C@H](OC(N)=O)[C@@H](O)c1ccccc1Cl` [Compound 1, 1-(2-chlorophenyl)-(S)-1-hydroxypropyl-(S)-2-carbamate] was tested, and the “MES test (po) Peak Time” value (male ICR mice) was 2 h, the “rate (%) of survivor according to survival time (FIG. 1)” value ([1]; 3, 10, 50 mg/kg p.o. once a day from 60 days of age, early stage of ALS) was “survival time is extended” and the “effect to increase the survival rate at early stage of ALS (FIG. 1)” value [1, 7] was “especially remarkable”. For the same compound, the “rate (%) of survivor according to disease onset time (FIG. 2)” value ([2]; 3, 10, 50 mg/kg p.o. once a day, onset = disease stage 4) was “delay the disease onset”, the “clinical score of each group (FIG. 4)” value ([2]; 3, 10, 50 mg/kg p.o. once a day, scale 1 to 5, compared to TG vehicle group) was “clinical scores were increased by administration of the drug in the dose-dependent manner” and the “effect to delay the disease onset (FIG. 2)” value [2, 7] was “especially remarkable”. For the same compound, the “body weight of each group (FIG. 3)” value [3] was “body weight loss compared with WT group was decrease by administration of the drug in the dose-dependent manner” and the “distance moved, open field test (FIG. 5)” value [4] was “some differences between treatments group of transgenic mice”.

With `C[C@@H](OC(N)=O)[C@H](O)c1ccccc1Cl` [Compound 2, 1-(2-chlorophenyl)-(R)-1-hydroxypropyl-(R)-2-carbamate] the “MES test (po) Peak Time” value (male ICR mice) was 0.25 h.

In the case of `C[C@H](OC(N)=O)[C@H](O)c1ccccc1Cl` [Compound 5, 1-(2-chlorophenyl)-(R)-1-hydroxypropyl-(S)-2-carbamate], the “MES test (po) Peak Time” value (male ICR mice) is reported as 0.5 h.

`CC[C@H](OC(N)=O)[C@@H](O)c1ccccc1Cl` [Compound 6, 1-(2-chlorophenyl)-(S)-1-hydroxybutyl-(S)-2-carbamate] was tested, and the “MES test (po) Peak Time” value (male ICR mice) was 1 h and the ED50 (male ICR mice) was 22.2 mg/kg.

`CC(C)[C@H](OC(N)=O)[C@@H](O)c1ccccc1Cl` [Compound 9, 1-(2-chlorophenyl)-(S)-1-hydroxy-3-methyl-butyl-(S)-2-carbamate] was tested, and the “MES test (po) Peak Time” value (male ICR mice) was 0.5 h and the ED50 (male ICR mice) was 67.1 mg/kg.

`C[C@H](OC(N)=O)[C@@H](O)c1ccc(Cl)cc1Cl` [Compound 36, 1-(2,4-dichlorophenyl)-(S)-1-hydroxypropyl-(S)-2-carbamate] showed an ED50 (male ICR mice) of 82.8 mg/kg.

With `C[C@H](OC(N)=O)[C@@H](O)c1c(Cl)cccc1Cl` [Compound 37, 1-(2,6-dichlorophenyl)-(S)-1-hydroxypropyl-(S)-2-carbamate] the “MES test (po) Peak Time” value (male ICR mice) was 0.25 h.

With `C[C@H](OC(N)=O)[C@@H](O)c1cccc(Cl)c1Cl` [Compound 38, 1-(2,3-dichlorophenyl)-(S)-1-hydroxypropyl-(S)-2-carbamate] the “MES test (po) Peak Time” value (male ICR mice) was 2 h and the ED50 (male ICR mice) was 91.4 mg/kg.

In the case of `CC[C@H](OC(N)=O)[C@@H](O)c1ccc(Cl)cc1Cl` [Compound 39, 1-(2,4-dichlorophenyl)-(S)-1-hydroxybutyl-(S)-2-carbamate], the “MES test (po) Peak Time” value (male ICR mice) is reported as 1 h and the ED50 (male ICR mice) is reported as 41.2 mg/kg.

Compound `CC[C@H](OC(N)=O)[C@@H](O)c1c(Cl)cccc1Cl` [Compound 40, 1-(2,6-dichlorophenyl)-(S)-1-hydroxybutyl-(S)-2-carbamate] has an ED50 (male ICR mice) of 46.9 mg/kg.

In the case of `CC(C)[C@H](OC(N)=O)[C@@H](O)c1c(Cl)cccc1Cl` [Compound 42, 1-(2,6-dichlorophenyl)-(S)-1-hydroxy-3-methyl-butyl-(S)-2-carbamate], the “MES test (po) Peak Time” value (male ICR mice) is reported as 0.5 h and the ED50 (male ICR mice) is reported as 35.2 mg/kg.

For `C[C@@H](OC(N)=O)[C@H](O)c1c(Cl)cccc1Cl` [Compound 46, 1-(2,6-dichlorophenyl)-(R)-1-hydroxypropyl-(R)-2-carbamate], the “MES test (po) Peak Time” value (male ICR mice) was 1 h and the ED50 (male ICR mice) was 35.2 mg/kg.

In the case of `C[C@@H](OC(N)=O)[C@H](O)c1ccccc1F` [Compound 64, 1-(2-fluorophenyl)-(R)-1-hydroxypropyl-(R)-2-carbamate], the “Grip strength: effect (%) compared to that of control treated with vehicle only” value (male mice (ICR) [5]) is reported as 120 ^a (35.4%) and the “Wire hang: effect (%) compared to that of control treated with vehicle only” value (male mice (ICR) [6]) is reported as 100 ^a (30.8%).
